Laboratory results from ChEMBL document CHEMBL2150933 (J Med Chem, 2012).
The source made the active and inactive calls. The rule behind the calls is not given here.

Columns and labels:
[1] = Cytotoxicity against human 786-O cells after 48 hrs by SRB assay; assay type: functional; conditions: 786-0, 48 h
[2] = tested on: K562; assay: Cytotoxicity against human K562 cells after 48 hrs by SRB assay; assay type: functional; conditions: K562, 48 h
[3] = tested on: OVCAR-3; assay: Cytotoxicity against human OVCAR3 cells after 48 hrs by SRB assay; assay type: functional; conditions: OVCAR-3, 48 h
[4] = tested on: SK-OV-3; assay: Cytotoxicity against human SKOV3 cells after 48 hrs by SRB assay; assay type: functional; conditions: SK-OV-3, 48 h
[5] = tested on: A549; assay: Cytotoxicity against human A549 cells after 72 hrs by MTT assay; assay type: functional; conditions: A549, 72 h
[6] = tested on: SK-MEL-2; assay: Antitumor activity against human SK-MEL-2 cells xenografted in athymic nu/nu Harlan mouse assessed as tumor growth inhibition at 20 mg/kg, iv administered Q3D for 10 days relative to control; assay type: functional, organism-based; parameters: dose 20 mg/kg
[7] = tested on: KM12; assay: Cytotoxicity against human KM12 cells after 48 hrs by SRB assay; assay type: functional; conditions: KM12, 48 h
[8] = tested on: TK-10; assay: Cytotoxicity against human TK10 cells after 48 hrs by SRB assay; assay type: functional; conditions: TK-10, 48 h
[9] = tested on: NCI-H522; assay: Cytotoxicity against human NCI-H522 cells after 48 hrs by SRB assay; assay type: functional; conditions: NCI-H522, 48 h
[10] = tested on: CCRF-CEM; assay: Cytotoxicity against human CCRF-CEM cells after 48 hrs by SRB assay; assay type: functional
[11] = Plasma concentration in CD1 mouse at 18 mg/kg, iv administered as single dose measured after 5 mins; assay type: ADME, organism-based; parameters: dose 18 mg/kg, route intravenous
[12] = tested on: HT-29; assay: Cytotoxicity against human HT-29 cells after 48 hrs by SRB assay; assay type: functional; conditions: HT-29, 48 h
[13] = tested on: Mus musculus; assay: Toxicity in athymic nu/nu Harlan mouse xenografted with human SK-MEL-2 cells assessed as change in body weight at 10 mg/kg, iv administered Q2D for 10 days relative to control; assay type: organism-based; parameters: dose 10 mg/kg, route intravenous; conditions: in vivo, 240 h
[14] = tested on: COLO 205; assay: Cytotoxicity against human COLO205 cells after 48 hrs by SRB assay; assay type: functional; conditions: COLO 205, 48 h, read-out: pGI50 (converted)
[15] = tested on: ACHN; assay: Cytotoxicity against human ACHN cells after 48 hrs by SRB assay; assay type: functional
[16] = tested on: EKVX; assay: Cytotoxicity against human EKVX cells after 48 hrs by SRB assay; assay type: functional
[17] = tested on: BXPC-3; assay: Cytotoxicity against human BxPC3 cells after 72 hrs by MTT assay; assay type: functional; conditions: BXPC-3, 72 h
[18] = tested on: Mus musculus; assay: Toxicity in athymic nu/nu Harlan mouse xenografted with human COLO205 cells assessed as adverse reactions at 20 mg/kg, iv administered Q3D for 10 days relative to control; assay type: organism-based, COLO 205; parameters: dose 20 mg/kg, route intravenous; conditions: in vivo, 240 h
[19] = tested on: HOP-62; assay: Cytotoxicity against human HOP62 cells after 48 hrs by SRB assay; assay type: functional; conditions: HOP-62, 48 h
[20] = tested on: SF-268; assay: Cytotoxicity against human SF268 cells after 48 hrs by SRB assay; assay type: functional; conditions: SF-268, 48 h
[21] = tested on: Malme-3M; assay: Cytotoxicity against human MALME-3M cells after 48 hrs by SRB assay; assay type: functional
[22] = tested on: A498; assay: Cytotoxicity against human A498 cells after 48 hrs by SRB assay; assay type: functional; conditions: A498, 48 h
[23] = tested on: Mus musculus; assay: Toxicity in athymic nu/nu Harlan mouse xenografted with human SK-MEL-2 cells assessed as mortality at 20 mg/kg, iv administered Q3D for 10 days relative to control; assay type: organism-based; parameters: dose 20 mg/kg, route intravenous; conditions: in vivo, 240 h
[24] = tested on: OVCAR-5; assay: Cytotoxicity against human OVCAR5 cells after 48 hrs by SRB assay; assay type: functional; conditions: OVCAR-5, 48 h
[25] = tested on: SNB-19; assay: Cytotoxicity against human SNB19 cells after 48 hrs by SRB assay; assay type: functional; conditions: SNB-19, 48 h
[26] = tested on: Mus musculus; assay: Toxicity in athymic nu/nu Harlan mouse xenografted with human COLO205 cells assessed as adverse reactions at 10 mg/kg, iv administered Q2D for 10 days relative to control; assay type: organism-based, COLO 205; parameters: dose 10 mg/kg, route intravenous; conditions: in vivo, 240 h
[27] = tested on: MCF7; assay: Cytotoxicity against human MCF7 cells after 48 hrs by SRB assay; assay type: functional; conditions: MCF7, 48 h
[28] = tested on: MDA-MB-231; assay: Cytotoxicity against human MDA-MB-231 cells after 48 hrs by SRB assay; assay type: functional; conditions: MDA-MB-231, 48 h
[29] = tested on: SF-539; assay: Cytotoxicity against human SF539 cells after 48 hrs by SRB assay; assay type: functional; conditions: SF-539, 48 h
[30] = tested on: OVCAR-4; assay: Cytotoxicity against human OVCAR4 cells after 48 hrs by SRB assay; assay type: functional; conditions: OVCAR-4, 48 h
[31] = tested on: HOP-92; assay: Cytotoxicity against human HOP92 cells after 48 hrs by SRB assay; assay type: functional; conditions: HOP-92, 48 h
[32] = tested on: SW-620; assay: Cytotoxicity against human SW620 cells after 48 hrs by SRB assay; assay type: functional; conditions: SW-620, 48 h
[33] = tested on: SK-MEL-2; assay: Cytotoxicity against human SK-MEL-2 cells after 48 hrs by SRB assay; assay type: functional; conditions: SK-MEL-2, 48 h
[34] = tested on: PC-3; assay: Cytotoxicity against human PC3 cells after 48 hrs by SRB assay; assay type: functional; conditions: PC-3, 48 h
[35] = tested on: SNB-75; assay: Cytotoxicity against human SNB75 cells after 48 hrs by SRB assay; assay type: functional; conditions: SNB-75, 48 h
[36] = tested on: SR; assay: Cytotoxicity against human SR cells after 48 hrs by SRB assay; assay type: functional
[37] = tested on: HCT-15; assay: Cytotoxicity against human HCT15 cells after 48 hrs by SRB assay; assay type: functional; conditions: HCT-15, 48 h
[38] = tested on: Mus musculus; assay: Toxicity in athymic nu/nu Harlan mouse xenografted with human COLO205 cells assessed as change in body weight at 20 mg/kg, iv administered Q3D for 10 days relative to control; assay type: organism-based, COLO 205; parameters: dose 20 mg/kg, route intravenous; conditions: in vivo, 240 h
[39] = tested on: Mus musculus; assay: Toxicity in athymic nu/nu Harlan mouse xenografted with human COLO205 cells assessed as change in body weight at 10 mg/kg, iv administered Q2D for 10 days relative to control; assay type: organism-based, COLO 205; parameters: dose 10 mg/kg, route intravenous; conditions: in vivo, 240 h

SMILES: CO[C@@H]([C@@H]1Cc2cc3cc(O[C@H]4C[C@@H](O[C@H]5C[C@@H](O)[C@H](O)[C@@H](C)O5)[C@H](O)[C@@H](C)O4)c(C)c(O)c3c(O)c2C(=O)[C@H]1O[C@H]1C[C@@H](O[C@H]2C[C@@H](O[C@H]3C[C@H](O)[C@H](O)[C@@H](C)O3)[C@H](O)[C@@H](C)O2)[C@H](O)[C@@H](C)O1)[C@@H](O)C(C)=O
- GI50 [1]: 32.4 nM
- GI50 [2]: 17.4 nM
- GI50 [3]: 19.5 nM
- GI50 [4]: 26.3 nM
- GI50 [5]: 300 nM
- TGI [6]: Active
- GI50 [7]: 17.8 nM
- GI50 [8]: 52.5 nM
- GI50 [9]: 17.8 nM
- GI50 [10]: 24.6 nM
- concentration at 5 min [11]: 28 µM
- GI50 [12]: 21.4 nM
- Activity [13]: Non-toxic
- GI50 [14]: 21.4 nM
- GI50 [15]: 34.7 nM
- GI50 [16]: 85.1 nM
- GI50 [17]: 300 nM
- Activity [18]: Non-toxic
- GI50 [19]: 24.6 nM
- GI50 [20]: 22.4 nM
- GI50 [21]: 19.5 nM
- GI50 [22]: 14.4 nM
- Activity [23]: Non-toxic
- GI50 [24]: 39.8 nM
- GI50 [25]: 28.2 nM
- Activity [26]: Non-toxic
- GI50 [27]: 13.8 nM
- GI50 ([28]; read-out: GI50): 50 nM
- GI50 ([28]; read-out: pGI50 (converted)): 47.9 nM
- GI50 [29]: 25.1 nM
- GI50 [30]: 56.2 nM
- GI50 [31]: 26.9 nM
- GI50 [32]: 22.4 nM
- GI50 [33]: 27.5 nM
- GI50 [34]: 21.4 nM
- GI50 [35]: 32.4 nM
- GI50 [36]: 12.9 nM
- GI50 [37]: 1050 nM
- Activity [38]: Non-toxic
- Activity [39]: Non-toxic
